How the values were obtained:
[1] = test system: Proto-oncogene tyrosine-protein kinase receptor Ret (Homo sapiens), P07949 [V804M]; settings: Compound concentration 100.0 nM
[2] = molecular target: Adrenomedullin receptor AM1; CALCRL/RAMP2 (Homo sapiens) (UniProt O60895+Q16602); assay: Adrenomedullin AM1 Eurofins-Panlabs radioligand binding assay; assay type: protein-complex assay; settings: Compound concentration 10.0 uM
[3] = species: Rattus norvegicus; assay: GABAA, Ro-15-1788, Hippocampus Eurofins-Panlabs radioligand binding assay; set-up: ligand concentration 1 nM; settings: Compound concentration 10.0 uM
[4] = molecular target: 5-hydroxytryptamine receptor 5A (Homo sapiens) (UniProt P47898); settings: Compound concentration 10.0 uM
[5] = molecular target: Ephrin type-A receptor 6 (Homo sapiens) (UniProt Q9UF33); settings: Compound concentration 100.0 nM
[6] = molecular target: Serine/threonine-protein kinase PknB (Mycobacterium tuberculosis) (UniProt P9WI81); settings: Compound concentration 100.0 nM
Chain of Serine/threonine-protein kinase PknB (Mycobacterium tuberculosis) (P9WI81 whole entry, the tested form may be a part): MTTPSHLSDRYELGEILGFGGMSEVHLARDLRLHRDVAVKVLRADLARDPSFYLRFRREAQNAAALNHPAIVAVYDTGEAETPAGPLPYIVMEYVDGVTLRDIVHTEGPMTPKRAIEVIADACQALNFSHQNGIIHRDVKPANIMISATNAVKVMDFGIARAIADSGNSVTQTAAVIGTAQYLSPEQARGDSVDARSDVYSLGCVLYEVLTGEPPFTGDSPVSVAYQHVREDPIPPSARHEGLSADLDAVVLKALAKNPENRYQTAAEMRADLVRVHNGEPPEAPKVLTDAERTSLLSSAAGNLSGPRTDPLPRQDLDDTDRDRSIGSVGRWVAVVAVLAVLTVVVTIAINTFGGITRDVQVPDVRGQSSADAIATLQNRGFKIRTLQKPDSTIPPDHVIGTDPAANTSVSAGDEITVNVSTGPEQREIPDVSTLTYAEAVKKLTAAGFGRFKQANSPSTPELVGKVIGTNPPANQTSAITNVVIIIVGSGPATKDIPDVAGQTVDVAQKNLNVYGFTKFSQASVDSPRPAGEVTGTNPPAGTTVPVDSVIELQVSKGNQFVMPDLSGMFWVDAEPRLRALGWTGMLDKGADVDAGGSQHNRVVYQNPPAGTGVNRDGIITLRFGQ

[7] = molecular target: Phosphatidylinositol 4-phosphate 3-kinase C2 domain-containing subunit beta (Homo sapiens) (UniProt O00750); settings: Compound concentration 100.0 nM
[8] = molecular target: Prostaglandin E2 receptor EP3 subtype (Homo sapiens) (UniProt P43115); assay: Prostanoid EP3 Eurofins-Panlabs radioligand binding assay; set-up: ligand concentration 0.5 nM, non-specific ligand with concentration 10 µM Prostaglandin EŽ2 (PGE2), incubation time 60 min, incubation temperature 25 °C; settings: Compound concentration 10.0 uM
[9] = species: Homo sapiens; assay: Inhibition of Nicotinic Acetylcholine at compound concentration of 10.0 uM in the Eurofins-Panlabs radioligand binding assay (Eurofins_assay_258590); assay type: protein-complex assay; settings: Compound concentration 10.0 uM
[10] = molecular target: Vascular endothelial growth factor receptor 2 (Homo sapiens) (UniProt P35968); settings: Compound concentration 100.0 nM
[11] = molecular target: Macrophage colony-stimulating factor 1 receptor (Homo sapiens) (UniProt P07333); settings: Compound concentration 100.0 nM
[12] = molecular target: Serine/threonine-protein kinase SBK1 (Homo sapiens) (UniProt Q52WX2); settings: Compound concentration 100.0 nM
Chain of Serine/threonine-protein kinase SBK1 (Homo sapiens) (Q52WX2 whole entry): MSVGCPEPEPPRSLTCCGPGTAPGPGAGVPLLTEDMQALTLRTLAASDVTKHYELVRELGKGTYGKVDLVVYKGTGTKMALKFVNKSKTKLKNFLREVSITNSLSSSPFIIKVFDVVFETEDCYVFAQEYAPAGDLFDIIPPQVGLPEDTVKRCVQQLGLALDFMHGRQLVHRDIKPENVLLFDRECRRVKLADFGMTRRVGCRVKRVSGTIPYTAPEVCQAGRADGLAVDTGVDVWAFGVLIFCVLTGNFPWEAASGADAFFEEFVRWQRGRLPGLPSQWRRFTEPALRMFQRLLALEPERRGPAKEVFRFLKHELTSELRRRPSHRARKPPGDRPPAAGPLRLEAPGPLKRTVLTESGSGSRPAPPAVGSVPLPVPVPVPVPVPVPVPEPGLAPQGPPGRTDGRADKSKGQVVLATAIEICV

[13] = molecular target: Homeodomain-interacting protein kinase 1 (Homo sapiens) (UniProt Q86Z02); settings: Compound concentration 100.0 nM
[14] = molecular target: Sigma intracellular receptor 2 (Homo sapiens, UniProt Q5BJF2); assay: GPCRScan assay: inhibition of Sigma 2; set-up: radioligand conc. used [nm] 5.0, parental cells HEKT
[15] = molecular target: High affinity cGMP-specific 3',5'-cyclic phosphodiesterase 9A (Homo sapiens, UniProt O76083); assay: Biochemical assay (PDE9A)
Chain of High affinity cGMP-specific 3',5'-cyclic phosphodiesterase 9A (O76083 whole entry): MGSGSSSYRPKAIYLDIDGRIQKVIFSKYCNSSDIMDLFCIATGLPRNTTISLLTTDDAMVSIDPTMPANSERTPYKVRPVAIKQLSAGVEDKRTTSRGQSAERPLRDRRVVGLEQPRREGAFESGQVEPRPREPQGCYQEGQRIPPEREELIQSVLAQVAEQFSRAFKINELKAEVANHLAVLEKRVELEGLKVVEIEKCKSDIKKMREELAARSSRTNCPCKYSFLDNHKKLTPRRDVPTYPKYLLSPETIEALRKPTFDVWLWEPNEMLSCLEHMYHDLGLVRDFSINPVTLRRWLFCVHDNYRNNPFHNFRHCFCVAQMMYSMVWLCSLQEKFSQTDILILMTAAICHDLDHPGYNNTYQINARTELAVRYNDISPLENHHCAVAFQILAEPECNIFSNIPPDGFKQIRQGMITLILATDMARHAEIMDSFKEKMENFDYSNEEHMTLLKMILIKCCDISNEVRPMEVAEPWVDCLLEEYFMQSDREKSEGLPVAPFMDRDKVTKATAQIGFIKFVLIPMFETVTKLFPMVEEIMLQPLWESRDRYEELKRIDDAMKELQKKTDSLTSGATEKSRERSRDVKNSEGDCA

[16] = molecular target: Beta-2 adrenergic receptor (Homo sapiens) (UniProt P07550); settings: Compound concentration 10.0 uM
[17] = test system: Epidermal growth factor receptor (Homo sapiens), P00533 [UNDEFINED MUTATION]; settings: Compound concentration 100.0 nM
Chain of Epidermal growth factor receptor (Homo sapiens), P00533 [UNDEFINED MUTATION] (P00533 whole entry, looked up, stated change not applied): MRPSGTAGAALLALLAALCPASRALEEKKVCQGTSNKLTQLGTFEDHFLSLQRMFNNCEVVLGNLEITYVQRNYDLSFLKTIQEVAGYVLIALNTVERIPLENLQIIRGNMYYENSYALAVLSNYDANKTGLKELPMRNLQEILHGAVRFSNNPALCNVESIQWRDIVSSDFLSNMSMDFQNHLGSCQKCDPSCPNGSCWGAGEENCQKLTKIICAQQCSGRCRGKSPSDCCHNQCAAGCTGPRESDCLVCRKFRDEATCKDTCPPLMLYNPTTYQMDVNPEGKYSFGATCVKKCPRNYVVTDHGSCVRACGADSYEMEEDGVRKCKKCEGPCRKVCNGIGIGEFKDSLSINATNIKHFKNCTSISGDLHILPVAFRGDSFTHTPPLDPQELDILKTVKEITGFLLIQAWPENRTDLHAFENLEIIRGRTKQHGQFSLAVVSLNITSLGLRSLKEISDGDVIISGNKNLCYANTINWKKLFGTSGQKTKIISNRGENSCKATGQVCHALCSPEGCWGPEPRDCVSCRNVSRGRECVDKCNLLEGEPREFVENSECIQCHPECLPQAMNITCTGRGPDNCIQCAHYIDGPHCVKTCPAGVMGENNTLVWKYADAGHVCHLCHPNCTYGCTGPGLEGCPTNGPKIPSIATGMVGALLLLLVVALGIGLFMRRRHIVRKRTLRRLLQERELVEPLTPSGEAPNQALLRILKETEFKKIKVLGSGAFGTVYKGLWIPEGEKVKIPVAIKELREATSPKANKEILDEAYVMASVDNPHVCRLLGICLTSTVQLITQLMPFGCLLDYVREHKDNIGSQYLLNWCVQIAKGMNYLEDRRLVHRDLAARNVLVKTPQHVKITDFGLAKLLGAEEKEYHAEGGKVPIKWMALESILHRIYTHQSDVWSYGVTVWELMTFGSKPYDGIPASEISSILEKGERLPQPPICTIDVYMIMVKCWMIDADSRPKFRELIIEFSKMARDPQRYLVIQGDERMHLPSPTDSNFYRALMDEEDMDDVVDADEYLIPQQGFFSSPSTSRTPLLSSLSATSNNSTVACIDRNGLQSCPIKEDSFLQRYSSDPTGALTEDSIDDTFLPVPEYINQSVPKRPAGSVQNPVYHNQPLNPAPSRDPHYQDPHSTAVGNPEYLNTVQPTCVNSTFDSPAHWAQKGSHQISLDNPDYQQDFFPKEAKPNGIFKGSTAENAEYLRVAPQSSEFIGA

[18] = molecular target: ATP-sensitive inward rectifier potassium channel 11 (Cricetulus griseus) (UniProt A0A3L7HHE1); assay: Inhibition of Potassium Channel [KATP] at 10 µM in the Eurofins-Panlabs radioligand binding assay (Eurofins_assay_265600); settings: Cricetinae; Compound concentration 10.0 uM
[19] = molecular target: Dual 3',5'-cyclic-AMP and -GMP phosphodiesterase 11A (Homo sapiens, UniProt Q9HCR9); assay: Biochemical assay (PDE11A)
[20] = molecular target: Cyclin-dependent kinase 15 (Homo sapiens) (UniProt Q96Q40); settings: Compound concentration 100.0 nM
[21] = molecular target: Neuropeptide Y receptor type 2 (Homo sapiens) (UniProt P49146); assay: Inhibition of Neuropeptide Y Y2 at 10 µM in the Eurofins-Panlabs radioligand binding assay (Eurofins_assay_257110); settings: Compound concentration 10.0 uM
[22] = test system: Epidermal growth factor receptor (Homo sapiens), P00533 [UNDEFINED MUTATION]; settings: Compound concentration 100.0 nM; remark: listed apart in the source
[23] = molecular target: Vasopressin V2 receptor (Homo sapiens) (UniProt P30518); assay: Inhibition of Vasopressin V2 at 10 µM in the Eurofins-Panlabs radioligand binding assay (Eurofins_assay_287610); set-up: ligand concentration 4 nM; settings: Compound concentration 10.0 uM
[24] = molecular target: SRSF protein kinase 2 (Homo sapiens) (UniProt P78362); settings: Compound concentration 100.0 nM
[25] = molecular target: NT-3 growth factor receptor (Homo sapiens) (UniProt Q16288); settings: Compound concentration 100.0 nM
[26] = species: Rattus norvegicus; settings: Compound concentration 10.0 uM
[27] = molecular target: Calcium/calmodulin-dependent protein kinase type 1B (Homo sapiens) (UniProt Q6P2M8); settings: Compound concentration 100.0 nM
Chain of Calcium/calmodulin-dependent protein kinase type 1B (Homo sapiens) (Q6P2M8 whole entry): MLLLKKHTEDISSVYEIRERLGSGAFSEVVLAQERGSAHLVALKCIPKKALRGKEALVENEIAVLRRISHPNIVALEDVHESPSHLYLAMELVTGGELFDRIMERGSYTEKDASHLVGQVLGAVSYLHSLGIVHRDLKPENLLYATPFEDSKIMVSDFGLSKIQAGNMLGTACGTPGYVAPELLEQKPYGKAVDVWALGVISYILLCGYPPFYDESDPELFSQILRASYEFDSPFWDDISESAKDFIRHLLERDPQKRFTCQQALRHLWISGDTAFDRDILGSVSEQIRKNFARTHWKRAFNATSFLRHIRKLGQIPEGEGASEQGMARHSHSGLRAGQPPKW

[28] = molecular target: Mitogen-activated protein kinase kinase kinase 5 (Homo sapiens) (UniProt Q99683); settings: Compound concentration 100.0 nM
[29] = molecular target: Aurora kinase A (Homo sapiens) (UniProt O14965); settings: Compound concentration 100.0 nM
Chain of Aurora kinase A (Homo sapiens) (O14965 whole entry): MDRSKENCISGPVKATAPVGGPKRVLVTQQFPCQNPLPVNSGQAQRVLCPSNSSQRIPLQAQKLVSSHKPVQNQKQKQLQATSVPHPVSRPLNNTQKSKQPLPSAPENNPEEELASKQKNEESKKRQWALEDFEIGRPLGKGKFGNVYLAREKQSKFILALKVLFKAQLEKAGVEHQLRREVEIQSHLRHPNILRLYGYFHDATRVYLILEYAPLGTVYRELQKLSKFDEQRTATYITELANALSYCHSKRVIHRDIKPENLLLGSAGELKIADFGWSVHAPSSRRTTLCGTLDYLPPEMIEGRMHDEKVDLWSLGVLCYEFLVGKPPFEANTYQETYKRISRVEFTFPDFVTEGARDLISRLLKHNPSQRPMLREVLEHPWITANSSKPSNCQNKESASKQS

[30] = molecular target: NUAK family SNF1-like kinase 1 (Homo sapiens) (UniProt O60285); settings: Compound concentration 100.0 nM
[31] = molecular target: Cytoplasmic tyrosine-protein kinase BMX (Homo sapiens) (UniProt P51813); settings: Compound concentration 100.0 nM
[32] = molecular target: Somatostatin receptor type 2 (Homo sapiens) (UniProt P30874); assay: Somatostatin sst2 Eurofins-Panlabs radioligand binding assay; set-up: ligand concentration 0.03 nM; settings: Compound concentration 10.0 uM
[33] = molecular target: Type-1 angiotensin II receptor (Homo sapiens) (UniProt P30556); assay: Angiotensin AT1 Eurofins-Panlabs radioligand binding assay; settings: Compound concentration 10.0 uM
[34] = molecular target: 5'-AMP-activated protein kinase catalytic subunit alpha-1 (Homo sapiens) (UniProt Q13131); settings: Compound concentration 100.0 nM
Chain of 5'-AMP-activated protein kinase catalytic subunit alpha-1 (Homo sapiens) (Q13131 whole entry, looked up): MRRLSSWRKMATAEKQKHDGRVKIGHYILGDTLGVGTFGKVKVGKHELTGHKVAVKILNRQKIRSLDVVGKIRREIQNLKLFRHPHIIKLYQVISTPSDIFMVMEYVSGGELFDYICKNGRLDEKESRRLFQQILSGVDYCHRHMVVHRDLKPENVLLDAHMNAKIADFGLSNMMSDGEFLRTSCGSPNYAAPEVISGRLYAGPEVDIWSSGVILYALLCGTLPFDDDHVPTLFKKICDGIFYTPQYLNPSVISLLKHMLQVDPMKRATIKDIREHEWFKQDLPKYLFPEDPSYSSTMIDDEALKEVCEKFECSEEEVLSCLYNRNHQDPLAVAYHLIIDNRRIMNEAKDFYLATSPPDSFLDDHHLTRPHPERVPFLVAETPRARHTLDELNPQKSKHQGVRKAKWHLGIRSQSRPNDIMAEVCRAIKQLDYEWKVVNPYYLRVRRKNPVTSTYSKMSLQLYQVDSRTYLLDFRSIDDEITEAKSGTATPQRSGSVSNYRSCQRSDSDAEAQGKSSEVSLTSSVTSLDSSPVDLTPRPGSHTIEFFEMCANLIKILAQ

[35] = test system: eIF-2-alpha kinase GCN2 (Homo sapiens), Q9P2K8 [S808G]; settings: Compound concentration 100.0 nM
[36] = molecular target: Serine/threonine-protein kinase pim-3 (Homo sapiens) (UniProt Q86V86); settings: Compound concentration 100.0 nM
[37] = test system: Tyrosine-protein kinase ABL1 (Homo sapiens), P00519 [F317I]; settings: Compound concentration 100.0 nM
[38] = molecular target: Serine/threonine-protein kinase 38-like (Homo sapiens) (UniProt Q9Y2H1); settings: Compound concentration 100.0 nM
Chain of Serine/threonine-protein kinase 38-like (Homo sapiens) (Q9Y2H1 2-464 limits assumed): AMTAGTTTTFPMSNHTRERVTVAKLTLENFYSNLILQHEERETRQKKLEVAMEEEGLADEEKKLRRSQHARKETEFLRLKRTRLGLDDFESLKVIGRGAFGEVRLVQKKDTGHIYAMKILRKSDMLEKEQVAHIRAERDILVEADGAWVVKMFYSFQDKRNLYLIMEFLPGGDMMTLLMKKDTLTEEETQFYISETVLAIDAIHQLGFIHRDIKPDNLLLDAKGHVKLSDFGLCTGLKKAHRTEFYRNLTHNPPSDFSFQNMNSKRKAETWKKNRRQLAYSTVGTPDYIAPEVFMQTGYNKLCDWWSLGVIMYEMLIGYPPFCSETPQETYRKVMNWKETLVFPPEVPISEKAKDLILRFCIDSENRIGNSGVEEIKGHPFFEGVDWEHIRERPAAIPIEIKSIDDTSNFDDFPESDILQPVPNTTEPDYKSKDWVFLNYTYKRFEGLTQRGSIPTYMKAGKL

[39] = molecular target: Atypical kinase COQ8A, mitochondrial (Homo sapiens) (UniProt Q8NI60); settings: Compound concentration 100.0 nM
[40] = molecular target: Beta-1 adrenergic receptor (Homo sapiens) (UniProt P08588); settings: Compound concentration 10.0 uM
[41] = molecular target: cGMP-dependent 3',5'-cyclic phosphodiesterase (Homo sapiens, UniProt O00408); assay: Biochemical assay (PDE2A)
[42] = test system: Phosphatidylinositol 4,5-bisphosphate 3-kinase catalytic subunit alpha isoform (Homo sapiens), P42336 [H1047L]; settings: Compound concentration 100.0 nM
[43] = molecular target: Alpha-2A adrenergic receptor (Homo sapiens) (UniProt P08913); settings: Compound concentration 10.0 uM

## COCCOc1nc(-c2ccc(Cl)nc2)nc2c1CN(C(=O)c1ncn3ccccc13)CC2 [THPP-1]
[1]
  residual activity: 89%
[2]
  inhibition: -6%
[3]
  inhibition: 37%
[4]
  inhibition: -7.27%
[5]
  residual activity: 100%
[6]
  residual activity: 86%
[7]
  residual activity: 100%
[8]
  inhibition: -1%
[9]
  inhibition: -7%
[10]
  residual activity: 100%
[11]
  residual activity: 100%
[12]
  residual activity: 100%
[13]
  residual activity: 90%
[14]
  Ki: 3.35 µM
[15]
  Ki: > 50 µM (not active)
[16]
  inhibition: -0.65%
[17]
  residual activity: 100%
[18]
  inhibition: -4%
[19]
  Ki: 0.298 µM (not active)
[20]
  residual activity: 100%
[21]
  inhibition: 1%
[22]
  residual activity: 100%
[23]
  inhibition: -2%
[24]
  residual activity: 100%
[25]
  residual activity: 100%
[26]
  inhibition: -9%
[27]
  residual activity: 100%
[28]
  residual activity: 84%
[29]
  residual activity: 81%
[30]
  residual activity: 100%
[31]
  residual activity: 100%
[32]
  inhibition: 0%
[33]
  inhibition: 3%
[34]
  residual activity: 100%
[35]
  residual activity: 100%
[36]
  residual activity: 100%
[37]
  residual activity: 100%
[38]
  residual activity: 100%
[39]
  residual activity: 100%
[40]
  inhibition: -3%
[41]
  Ki: 1.2 µM (not active)

## CC(C)CC(=O)N1CCc2nc(-c3ccc(Br)cc3)nc(N(C)Cc3ccccc3)c2C1 [THPP-1-NC]
[1]
  residual activity: 82%
[5]
  residual activity: 100%
[6]
  residual activity: 97%
[42]
  residual activity: 100%
[7]
  residual activity: 100%
[10]
  residual activity: 100%
[11]
  residual activity: 100%
[12]
  residual activity: 100%
[13]
  residual activity: 64%
[14]
  Ki: 0.708 µM
[15]
  Ki: > 54.6 µM (not active)
[16]
  inhibition: 5.63%
[17]
  residual activity: 99%
[19]
  Ki: 8.8 µM (not active)
[20]
  residual activity: 100%
[22]
  residual activity: 100%
[24]
  residual activity: 100%
[25]
  residual activity: 100%
[27]
  residual activity: 100%
[28]
  residual activity: 91%
[29]
  residual activity: 72%
[30]
  residual activity: 100%
[31]
  residual activity: 100%
[34]
  residual activity: 100%
[35]
  residual activity: 100%
[36]
  residual activity: 100%
[37]
  residual activity: 100%
[38]
  residual activity: 95%
[39]
  residual activity: 100%
[41]
  Ki: > 100 µM (not active)
[43]
  inhibition: 48.4%

— ChEMBL document CHEMBL4507293 (2021)
